What was measured:
[1] = target: T1, bovine cathepsin B (Bos taurus, UniProt P07688); test: Kinetics of inhibition, progress curve method (kass); format: biochemical; conditions: bovine cathepsin B 1 nM; substrate Z-RR-AMC 10 μM; pseudo-first order
Protocol: (§1) The kinetics of inhibition was determined by progress curve method under pseudo-first order conditions with at least 10-fold molar excess of inhibitor. Recorded progress curves were analyzed by non-linear regression according to the following equation (Ref 36).
(§2) [P]=vz(1−e^−k·t)/k where [P] is the product, vz is the velocity at time zero and k is the pseudo first order rate constant. Apparent rate constant (kapp) was determined from the slope of plot k versus [I]. Due to irreversible and competitive mechanism of inhibition, kapp was converted to the association constant (kass) using the equation below: kass=kapp(1+[S]/KM)
(§3) Activity of human cathepsin L was measured using the fluorogenic substrate Z-FRAMC37 (Bachem, USA) (Km=7.1 μM) and cathepsin B was assayed against the fluorogenic substrate Z-RR-AMC38 (Bachem, USA) (Km=114 μM). Concentration of substrates during the measurement was 10 μM. Cathepsins B and L (1 nM final concentrations) were incubated with inhibitor concentrations, ranging from 10 to 2000 nM, in the presence of 10 μM of appropriate substrate. Total volume during the measurement was 100 μl. Increase of fluorescence (370 nm excitation, […] emission) was continuously monitored for 30 minutes by Spectramax M5 spectrofluorimeter.
(§4) (Molecular Devices, USA) and inhibition curves were recorded. DMSO concentration during all measurements was 3.5%.

[2] = target: T2, human cathepsin L (Homo sapiens, UniProt P07711); test: as above; format: biochemical; conditions: human cathepsin L 1 nM; substrate Z-FR-AMC 10 μM; pseudo-first order
T2 sequence (P07711 114-333): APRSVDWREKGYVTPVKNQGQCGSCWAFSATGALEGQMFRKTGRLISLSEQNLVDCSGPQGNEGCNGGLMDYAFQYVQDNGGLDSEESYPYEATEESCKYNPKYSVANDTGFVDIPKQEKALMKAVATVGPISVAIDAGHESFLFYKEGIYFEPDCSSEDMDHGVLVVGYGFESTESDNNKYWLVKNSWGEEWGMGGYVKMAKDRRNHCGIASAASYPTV
Protocol: as §1, §2, §3, §4

[3] = system: protease species in tumor lysates; test: Biochemical analysis of in vivo labeled tumors, SDS-PAGE of lysates; parameters: species or system mouse; conditions: FIG. 6a
Description: Tumors from mice described in Example 7 were lysed in a detergent buffer. Crude lysates were normalized for total protein, separated by SDS-PAGE, and visualized by scanning of the gel with a Typhoon flatbed laser scanner, fluorescent images of corresponding mice are shown below gel images, where spotted areas indicate fluorescent readings, as obtained in Example 7. […] Lysates from a C2C12/ras tumor locally injected with DMSO/PBS were immuno precipitated using anti cathepsin B or cathepsin L antibodies as indicated. Samples were separated by SDS-PAGE, and visualized by scanning of the gel with a Typhoon flatbed laser scanner, as shown in FIG. 6b. The antibodies precipitated cat B and cat L complexes, indicating specific labeling of these proteases.

[4] = system: tumor tissues; test: Ex vivo imaging of tumor tissue cryo-sections; format: in vivo, mouse; conditions: 24 hours after probe injection, Cy5 channel
Protocol: Tumors from mice injected with either GB123 or GB125 were extracted 24 hours after probe injection and molded in OCT placed in tert-butanol cooled with liquid nitrogen. Cryo-sections (10 μm) of tumors were mounted with Fluoromount and imaged using a Zeiss 200M fluorescent microscope using a 40× lens and a Cy5 filter.

[5] = system: MDA MB-231 or MDA MB-435 cells; test: Labeling of active cysteine proteases in intact monolayers of tumor cell lines, SDS-PAGE; format: cell-based; conditions: 1 μM, four hours
Protocol: GB123 (1 μg) dissolved in DMSO/PBS was injected via the tail vein. Fluorescent images of living mice taken using an IVIS 200 imaging system equipped with a Cy5.5 filter at various time points after GB123 injection show localization of the probe to a tumor site. […] Labeling of active cysteine proteases in cell lines used to generate the tumors was carried out on SDS-PAGE. Intact monolayers of MDA MB-231 or MDA MB-435 cells were either pre-treated with the general papain family protease inhibitor JPM-OEt (50 μM) or with control DMSO (0.1%) for one hour and labeled by addition of GB123 (1 μM) to culture media for four hours. Crude detergent lysates were normalized for total protein, separated by SDS-PAGE, and visualized by scanning of the gel with a Typhoon flatbed laser scanner. […] All of these specific activities were sensitive to pre-treatment with the general inhibitor JPM-OEt. […] Plotted values are expressed as percentage of fluorescence measured relative to the signal observed at two hours post injection of probe.

[6] = system: MDA-MB 231 or C2C12/ras tumors; test: In vivo labeling of live mice with active probe and control inactive probe; parameters: species or system mouse
Protocol: Two to four weeks prior to imaging MDA-MB 231 or C2C12/ras cells (a myoblast cell line wherein ras blocks differentiation) at 2×10^6 cell per spot were injected subcutaneous to the back of Balb-c nude mice.
Mice bearing tumors of similar size were injected intravenous via the tail vein with a DMSO/PBS solution of GB123 or GB125 (0.8-1.1 μg/gr mice). DMSO/PBS was locally injected directly into tumors in indicated mice, 15 minutes prior to probe injection. Fluorescent intensity as photons per second per centimeter square per steradian (p/s/cm^2/sr) was recorded from living mice, (data not shown). Images were taken at various time points (e.g., 1 min., 5 hrs. and 22 hrs.) after probe injection using an IVIS 200 imaging system equipped with a Cy5.5 filter.

[7] = system: MDA-MB 231 tumors; test: In vivo imaging of cysteine protease activity in tumor-bearing mice (IVIS 200); parameters: species or system mouse; conditions: tail vein injection
Protocol: Three weeks prior to imaging, MDA-MB 435 or MDA-MB 231 cells (3×10^6 cell per site) were subcutaneously injected into the back left and right side of a Balb-c nude mouse. As is known in the literature, MDA-MB-435, expresses ALP56 (aspartic-like protease 56 kDa), which has homology to aspartic proteases, such as cathepsin D. Similarly, a trypsin-like protease secreted from MDA MB-231 cells can promote cell migration through autocrine activation of PAR-2. GB123 (1 μg) dissolved in DMSO/PBS was injected via the tail vein. Fluorescent images of living mice taken using an IVIS 200 imaging system equipped with a Cy5.5 filter at various time points after GB123 injection show localization of the probe to a tumor site. […] Labeling of active cysteine proteases in cell lines used to generate the tumors was carried out on SDS-PAGE. Intact monolayers of MDA MB-231 or MDA MB-435 cells were either pre-treated with the general papain family protease inhibitor JPM-OEt (50 μM) or with control DMSO (0.1%) for one hour and labeled by addition of GB123 (1 μM) to culture media for four hours. Crude detergent lysates were normalized for total protein, separated by SDS-PAGE, and visualized by scanning of the gel with a Typhoon flatbed laser scanner. […] Plotted values are expressed as percentage of fluorescence measured relative to the signal observed at two hours post injection of probe.

[8] = target: T1, bovine cathepsin B; test: Recombinant cathepsin labeling, SDS-PAGE fluorescent scan; format: biochemical; conditions: labeling by GB111 and GB117
Protocol: (§5) 0.7 μg recombinant human Cathepsin L (a generous gift from Dr. V. Turk Jozef, Stefan institute Slovenia) or 0.4 μg bovine Cathepsin B (Sigma) in reaction buffer (50 mM acetate, 2 mM DTT and 5 mM MgCl2, pH 5.5) were treated with 25 μM JPM-OEt for 30 min (indicated samples) at room temperature. Increasing concentrations of GB111, GB117, were added to appropriate samples for 30 min. The reaction was stopped by adding sample buffer X4 (40% glycerol, 0.2M Tris/HCl 6.8, 20% β-mercaptoethanol, 12% SDS and 0.4 mg/ml bromophenol blue). Half of the sample was separated on a 12% SDS gel and scanned by a Typhoon laser flatbed scanner at 532/580.

[9] = system: endogenous cathepsin activity; test: In vivo whole animal imaging with spectral imager; parameters: species or system mouse; conditions: 100 mg/kg IP 2 hours prior to GB117
Description: Photographs illustrating fluorescence imaging of endogenous cathepsin activity in live mice using the quenched activity-based probe GB117 were obtained with the CR1-Maestro™ Spectral imager, and comparisons were made between mice (a) with no probe, (b) with GB117 and (c) with GB117 plus the general cathepsin inhibitor JPM-OEt.
Areas of more intense labeling in the center of the animal (likely labeling of the liver, an organ with high cathepsin activity) were seen.
This work utilized a spectral imager (CRI Maestro) at the small animal imaging facility at Stanford. This new technology makes it possible to acquire the entire spectrum of light emission. Following spectral acquisition, the wavelengths specific to the injected probe can be defined, and autofluorescence subtracted. […] Techniques for spectral imaging in connection with multiple chromosome labels (“chromosome painting”) are known and may be adapted for use in vivo. See U.S. Pat. Nos. 5,936,731 and 6,690,817. A spectral imager is capable of collecting spatial (imaging) information as well as spectral information at every pixel in the image. This 3 dimensional data set enables the detailed study of both absorptive and fluorescent, histological and cellular material. […]

[10] = target: T2, human cathepsin L; test: Recombinant cathepsin labeling, SDS-PAGE fluorescent scan; format: biochemical; parameters: gift from Dr. V. Turk, Jozef Stefan Institute, Slovenia; conditions: labeling by GB111 and GB117
Protocol: as §5

[11] = system: NIH-3T3 cells; test: Imaging protease activity in live cells, fluorescence microscopy; format: cell-based, mouse; conditions: JPM-OEt 50 μM, 1 hour
Protocol: In these experiments (data not shown), cultures of NIH-3T3 cells were either pre-treated with the general papain family protease inhibitor JPM-OEt (50 μM) or with control DMSO (0.1%) for 1 hour and labeled by addition of GB111 or GB117 (1 μM) to growth media for 4-5 hours. The acidotropic lysosomal marker LysoTracker (which produces a green color) was added and cells were imaged using an inverted fluorescent microscope (Nikon). Cells were also treated and analyzed after being washed for 3 hours in growth media containing JPM-OEt (50 μM) or DMSO (0.1%) prior to imaging. As a result, red fluorescence—indicating protease activity, green fluorescence—indicating lysosomal compartments, and yellow fluorescence resulting from overlap in green and red signals was observed.
NIH 3T3 cells (165,000 cells/well) were seeded on glass cover slips in six-well tissue culture plates containing growth medium 1 day before treatment. Cells were either pretreated with the general papain family protease inhibitor JPM-OEt (50 μM) or with control DMSO (0.1%) for 1 hour. Cells were labeled by addition of GB111 or GB117 (1 μM) to growth media at pH 7.4 for 4-5 hours. Cells were transferred to growth media without phenol red. LysoTracker (50 nM final concentration) was added minutes before cells were imaged using an inverted fluorescent microscope (Nikon Diaphot-300 microscope with the 60 (NA 1.4) objective). […]

[12] = system: MCF-10A cells; test: Imaging in three-dimensional cell culture on Cultrex, confocal microscopy; format: cell-based; conditions: JPM-OEt 50 μM
Protocol: In these experiments, reconstituted basement membrane, Cultrex (Trevigen) was mixed with 1 μM GB111 or GB117 with or without JPM-OEt (50 μM). MCF-10A cells were grown three-dimensional cultures on Cultrex containing probes with or without inhibitor for 3 days then imaged by confocal microscopy using a water immersion lens (Zeiss).
MCF-10A cells were grown in 3D culture on reconstituted basement membrane extracted from an EHS mouse sarcoma (Cultrex from Trevigen) as previously described 35. GB117 or GB111 was added to Cultrex (1 μM final concentration) upon cell seeding and day 3 structures were imaged as described below. Day 8 structures grown Cultrex without probes were treated with 1 μM GB111 for 3 hours in assay media (culture media with 2% horse serum and 5 ng/mL EGF). Cells were washed overnight in assay media, fixed and imaged as described below.

For `Cc1cccc(C)c1C(=O)OCC(=O)[C@H](CCCCN)NC(=O)[C@H](Cc1ccccc1)NC(=O)OCc1ccccc1` [GB111-NH2], the “kass (inhibition rate constant)” value [1] was 38500 ± 7700 M^−1s^1 and the “kass (inhibition rate constant)” value [2] was 296400 ± 18100 M^−1s^1.
In the case of `CCN1C(=CC=CC=CC2=[N+](CCCCCC(=O)NCCCC[C@H](NC(=O)[C@H](Cc3ccccc3)NC(=O)OCc3ccccc3)C(=O)COC(=O)c3c(C)cccc3C)c3ccc(S(=O)(=O)O)cc3C2(C)C)C(C)(C)c2cc(S(=O)(=O)O)ccc21` [GB123], the “fluorescence of labeled bands in tumor lysates” value [3] was “significant fluorescence”, the “fluorescent signal in tumor cryo-sections” value [4] was “accumulation of the specific fluorescent signal” and the “labeling of cysteine protease activities in cell lines” value [5] was “increased labeling of a number of cysteine protease activities in MDA-MB 231 relative to the MDA-MB 435 cells”. The “fluorescence after 1 min.” value ([6]; MDA-MB-231 injected mice) was “showed fluorescence”, the “retention of observable signal” value ([6]; intravenous via tail vein, 0.8-1.1 μg/gr) was “at least 22 hrs” and the “fluorescent signal in tumor” value [7] was “accumulation of fluorescent signal was observed over time”.
In the case of JPM-OEt, the “effect of inhibitor pre-treatment on probe labeling” value [8] was “specifically competed”, the “effect of inhibitor pre-treatment on GB117 signal in live mouse” value [9] was “significantly reduced fluorescent signal in the entire animal” and the “effect of inhibitor pre-treatment on probe labeling” value [10] was “specifically competed”. The “effect of inhibitor pre-treatment on GB117 labeling pattern” value [11] was “blocked” and the “effect of inhibitor on GB117 staining in 3D culture” value [12] was “completely blocked”.

Reference: patent US8968700B2, “Imaging of protease activity in live cells using activity based probes” (The Board of Trustees of the Leland Stanford Junior …, priority 2005, dated 2015)
